Values quoted from earlier work as cited in US20190026423A1, “Cycle Closure Estimation of Relative Binding Affinities and Errors” (Schrödinger, LLC, priority 2013, published 2019).
Read-outs that look alike come from different tables or passages of the source.

Target: CDK2-cyclin A receptor (Homo sapiens, UniProt P24941)
Settings: experimental binding free energy
[1] = 6 ligands with crystal structures
[2] = ligands without crystal structures

| Structure (SMILES) | ΔG(EXP) [1] [kcal/mol] | ΔG(EXP) [2] [kcal/mol] |
| --- | --- | --- |
| Cc1cccc(Nc2nc(OCC3CCCCC3)c3nc[nH]c3n2)c1 [Compound 1h1r] | -7.67 |  |
| CS(=O)(=O)c1cccc(Nc2nc(OCC3CCCCC3)c3nc[nH]c3n2)c1 [Compound 1oiu] | -9.08 |  |
| CC(=O)c1ccc(Nc2nc(OCC3CCCCC3)c3nc[nH]c3n2)cc1 [Compound 1oiy] | -9.79 |  |

The remaining lines, values ahead:

| ΔG(EXP) [1] [kcal/mol] | ΔG(EXP) [2] [kcal/mol] | Structure (SMILES) |
| --- | --- | --- |
|  | -8.72 | CCc1cccc(Nc2nc(OCC3CCCCC3)c3nc[nH]c3n2)c1 [Compound 20] |
|  | -7.04 | Cc1cccc(Nc2nc(OCC3CCCCC3)c3nc[nH]c3n2)c1 [Compound 17] |
